The record followed here is patent publication US20240343727A1, “PYRIDAZINONE OR PYRIDINONE COMPOUNDS, PREPARATION METHODS AND USES THEREOF” (InventisBio Co., Ltd., priority 2021, published 2024).

pIC50: −log10 of the molar value. Like-named read-outs stand apart in the source and are kept apart here. A value given as a limit tells only on which side of the number the result lay.

In one experiment the test system is NCI-H1373 cells. The experiment is described as follows: Inhibition of cancer cell growth in NCI-H1373 cells (Cell-titer Glo, 6 days). Type of experiment: cell-based. Particulars: read-out: H1373 Cell Proliferation IC50. The method, then: Biological Assay Example B: Inhibition of cancer cell growth in NCI-H1373 cells by PARP7 inhibitors
NCI-H1373 cells were cultured in RPMI 1640 medium supplemented with 10% fetal bovine serum, 100 U/mL penicillin and 100 ug/mL streptomycin in a 37° C., 5% CO2 incubator. Fifteen hundred cells were seeded into each well of 96-well plate in RPMI1640 medium containing 10% fetal bovine serum and incubated overnight. Serial diluted compounds for each well were added at a final DMSO concentration of 0.5% and a day zero plate was collected for analysis. Compounds were incubated with the cells for 6 days. Cell growth was assessed using Cell-titer Glo reagent (Promega #G^7572). The luminescence signal was collected on Tecan Spark plate reader. Cell growth is determined by correcting for the cell count on day zero. Inhibition rate is calculated with the formula of % inhibition=100*(DMSO control-compounds)/(DMSO control-Blank). Cell growth inhibition IC50 is calculated with the equation of Y-Bottom+ (Top-Bottom)/(1+10^((LogIC50−X) *Hill Slope)).

Another experiment has as its target T1, PARP7 (Homo sapiens, UniProt Q7Z3E1).
T1 sequence (Q7Z3E1 1-657): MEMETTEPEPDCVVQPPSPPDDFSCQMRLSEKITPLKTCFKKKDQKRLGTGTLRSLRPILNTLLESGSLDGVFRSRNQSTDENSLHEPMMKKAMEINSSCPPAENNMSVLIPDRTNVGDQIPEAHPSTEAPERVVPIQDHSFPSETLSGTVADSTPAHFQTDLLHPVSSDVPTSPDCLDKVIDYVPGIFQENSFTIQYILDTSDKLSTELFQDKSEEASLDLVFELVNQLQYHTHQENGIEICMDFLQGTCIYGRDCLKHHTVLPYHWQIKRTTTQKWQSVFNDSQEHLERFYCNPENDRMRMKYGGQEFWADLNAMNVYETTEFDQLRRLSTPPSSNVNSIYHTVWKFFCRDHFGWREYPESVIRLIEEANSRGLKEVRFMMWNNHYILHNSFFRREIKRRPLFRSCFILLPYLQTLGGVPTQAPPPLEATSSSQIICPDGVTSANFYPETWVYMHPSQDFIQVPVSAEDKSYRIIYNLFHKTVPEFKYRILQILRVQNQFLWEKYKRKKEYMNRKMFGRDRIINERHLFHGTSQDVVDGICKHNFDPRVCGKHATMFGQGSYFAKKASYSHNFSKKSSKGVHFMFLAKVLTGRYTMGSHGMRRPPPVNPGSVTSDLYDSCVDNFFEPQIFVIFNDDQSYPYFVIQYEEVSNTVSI
The experiment is described as follows: PARP7 TR-FRET assay (binding, displacement of biotinylated Probe A). Particulars: 6 nM PARP7, 2 nM Probe A, 25° C., 30 min. In a few lines: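 His-tagged PARP7 at 6 nM was preincubated with compound and 2 nM biotinylated Probe A for 30 min at 25° C (HEPES pH 8.0, NaCl, BSA, DTT, Tween20). Europium-streptavidin/ULight-anti-His FRET was read as the 665/615 nm ratio after a further 30 min. IC50 was fitted from % inhibition normalised to vehicle and blank.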
In general terms: TR-FRET usually uses a lanthanide donor and a delayed reading to cut background.

Consider `O=C(CC1CN(c2cc(C(F)(F)F)c(=O)[nH]n2)c2cc(C(=O)N3CCC3)ccc2O1)N1CCN(c2ncc(C(F)(F)F)cn2)CC1` (single isomer, unassigned) [Compound 337], for which the pIC50 with NCI-H1373 cells was below 6.00; on PARP7, above 7.00.
Take `Cc1c(N2CCOc3ccc(C(=O)N4CCN(c5ncc(C(F)(F)F)cn5)CC4)cc32)n[nH]c(=O)c1C(F)(F)F` [Compound 78]: the pIC50 with NCI-H1373 cells (Homo sapiens, NCI-H1373, 144 h) is 6.00 to 7.00; at PARP7 it was 6.00 to 7.00.
For the compound `Cn1ccc2c(=O)[nH]nc(Oc3cccc(C(=O)N4CCN(c5ncc(C(F)(F)F)cn5)CC4)c3)c21` [Compound 73], the pIC50 in the experiment on NCI-H1373 cells (Homo sapiens, NCI-H1373, 144 h) was 6.00 to 7.00; on PARP7, above 7.00.
The like results for `CC(C)(O)c1cnc(N2CCN(C(=O)c3cccc(Oc4n[nH]c(=O)c(C(F)(F)F)c4N4CC5(CCC5)C4)c3)CC2)nc1` [Compound 349] were, in that order, above 7.00 and above 7.00.
As for `C[C@@H]1CN(C(=O)c2cc(Oc3n[nH]c(=O)c(C(F)(F)F)c3N3CC4(CCC4)C3)ccn2)CCN1c1cnc(C(F)(F)F)cn1` [Compound 353], the pIC50 with NCI-H1373 cells (Homo sapiens, NCI-H1373, 144 h) is above 7.00; at PARP7, above 7.00.
Regarding `Cc1c(N2C[C@@H](CC(=O)N3CCN(c4ncc(C(F)(F)F)cn4)CC3)O[C@@H](C)C2)n[nH]c(=O)c1C(F)(F)F` (stereo in doubt) [Compound 40], the pIC50 with NCI-H1373 cells (Homo sapiens, NCI-H1373, 144 h) is 6.00 to 7.00; on PARP7, above 7.00.
The like results for `O=C(c1cc(Oc2n[nH]c(=O)c(C(F)(F)F)c2N2CC3(CCC3)C2)ccn1)N1CCN(c2ncc(C(F)(F)F)cn2)CC1` [Compound 229] were, in that order, above 7.00 and above 7.00.
For `O=C(CC1CN(c2n[nH]c(=O)c3cc(F)ccc23)CCO1)N1CCN(c2ncc(C(F)(F)F)cn2)CC1` (single isomer, unassigned) [Compound 50], the pIC50 was 6.00 to 7.00 in the experiment on NCI-H1373 cells (Homo sapiens, NCI-H1373, 144 h) and above 7.00 on PARP7.
The like results for `Cc1ccc2c(=O)[nH]nc(N3CCOC(CC(=O)N4CCN(c5ncc(C(F)(F)F)cn5)CC4)C3)c2c1` (single isomer, unassigned) [Compound 123] were, in that order, below 6.00 and above 7.00.
The corresponding values for `N#Cc1ccc2c(c1)N(c1cc(C(F)(F)F)c(=O)[nH]n1)CC(CC(=O)N1CCN(c3ncc(Cl)cn3)CC1)O2` (single isomer, unassigned) [Compound 216] are above 7.00 and above 7.00.
Consider `N#Cc1ccc2c(c1)N(c1cc(C(F)(F)F)c(=O)[nH]n1)CC(CC(=O)N1CCN(c3ccc(C(F)(F)F)cn3)CC1)O2` (single isomer, unassigned) [Compound 346], for which the pIC50 was below 6.00 in the experiment with NCI-H1373 cells (Homo sapiens, NCI-H1373, 144 h) and above 7.00 at PARP7.
The like results for `Cc1c(N2C[C@H](CC(=O)N3CCN(c4ncc(C(F)(F)F)cn4)CC3)O[C@@H](C)C2)n[nH]c(=O)c1C(F)(F)F` (single isomer, unassigned) [Compound 42] were, in that order, below 6.00 and above 7.00.
For `O=C(CC1CN(c2cc(C(F)(F)F)c(=O)[nH]n2)c2cc(F)ccc2O1)N1CCN(c2ccc(C3CC3)cn2)CC1` (single isomer, unassigned) [Compound 300], the pIC50 in the experiment on NCI-H1373 cells (Homo sapiens, NCI-H1373, 144 h) was 6.00 to 7.00; at PARP7, above 7.00.
As for `O=C(CC1CN(c2cc(C(F)(F)F)c(=O)[nH]n2)CCO1)N1CCN(c2ncc(C(F)(F)F)cn2)CC1` (single isomer, unassigned) [Compound 32], the pIC50 in the experiment on NCI-H1373 cells (Homo sapiens, NCI-H1373, 144 h) was 6.00 to 7.00; on PARP7, above 7.00.
With `N#Cc1cnc(N2CCN(C(=O)c3cncc(Oc4n[nH]c(=O)c(C(F)(F)F)c4N4CC5(C4)CC(F)(F)C5)c3)CC2)nc1` [Compound 236], the pIC50 with NCI-H1373 cells (Homo sapiens, NCI-H1373, 144 h) was 6.00 to 7.00; at PARP7 it was above 7.00.
Regarding `O=C(CC1CN(c2cc(C(F)(F)F)c(=O)[nH]n2)c2cc(C(=O)N3CCC3)ccc2O1)N1CCN(c2ncc(C(F)(F)F)cn2)CC1` (single isomer, unassigned) [Compound 336], the pIC50 in the experiment with NCI-H1373 cells and on PARP7 was above 7.00 each time.
Take `O=C(CC1CN(c2cc(C(F)(F)F)c(=O)[nH]n2)c2cc(C(F)F)ccc2O1)N1CCN(c2cnc(C(F)(F)F)cn2)CC1` (single isomer, unassigned) [Compound 145]: the pIC50 with NCI-H1373 cells (Homo sapiens, NCI-H1373, 144 h) is above 7.00; on PARP7, above 7.00.
Consider `O=C(CC1CN(c2n[nH]c(=O)c3ccccc23)CCO1)N1CCN(c2ncc(C(F)(F)F)cn2)CC1` (single isomer, unassigned) [Compound 92], for which the pIC50 in the experiment with NCI-H1373 cells (Homo sapiens, NCI-H1373, 144 h) is 6.00 to 7.00; on PARP7, above 7.00.
The corresponding values for `O=C(c1cccc(Oc2n[nH]c(=O)c(C(F)(F)F)c2N2CC3(CCC3)C2)c1)N1CCN(c2cnc(C(F)(F)F)cn2)CC1` [Compound 188] are above 7.00 and above 7.00.
For the compound `COCCNC(=O)c1ccc2c(c1)N(c1cc(C(F)(F)F)c(=O)[nH]n1)CC(CC(=O)N1CCN(c3ncc(C(F)(F)F)cn3)CC1)O2` (single isomer, unassigned) [Compound 309], the pIC50 with NCI-H1373 cells (Homo sapiens, NCI-H1373, 144 h) was 6.00 to 7.00; on PARP7 it was above 7.00.
In the case of `O=C(CC[C@@H]1CCCN1c1n[nH]c(=O)c2ccccc12)N1CCN(c2ncc(C(F)(F)F)cn2)CC1` [Compound 48], the pIC50 in the experiment with NCI-H1373 cells (Homo sapiens, NCI-H1373, 144 h) is above 7.00; at PARP7, above 7.00.
For the compound `CN1C[C@@H](OCC(=O)N2CCN(c3ncc(C(F)(F)F)cn3)CC2)c2n[nH]c(=O)c3cc(F)cc1c23` (single isomer, unassigned) [Compound 14], the pIC50 was above 7.00 in the experiment on NCI-H1373 cells (Homo sapiens, NCI-H1373, 144 h) and above 7.00 at PARP7.
In the case of `CCOC1CN(c2c(Oc3ccnc(C(=O)N4CCN(c5ncc(C(F)(F)F)cn5)[C@H](C)C4)c3)n[nH]c(=O)c2C(F)(F)F)C1` [Compound 339], the pIC50 was above 7.00 in the experiment on NCI-H1373 cells (Homo sapiens, NCI-H1373, 144 h) and above 7.00 at PARP7.
As to `Cc1cccc2c(N3CCOC(CC(=O)N4CCN(c5ncc(C(F)(F)F)cn5)CC4)C3)n[nH]c(=O)c12` (single isomer, unassigned) [Compound 101], the pIC50 in the experiment with NCI-H1373 cells (Homo sapiens, NCI-H1373, 144 h) was below 6.00; at PARP7, 6.00 to 7.00.
The like results for `O=C(COC1CCOc2c1n[nH]c(=O)c2Br)N1CCN(c2ncc(C(F)(F)F)cn2)CC1` (single isomer, unassigned) [Compound 8] were, in that order, 6.00 to 7.00 and above 7.00.
`C[C@@H]1CC[C@@H](CCC(=O)N2CCN(c3ncc(C(F)(F)F)cn3)CC2)N1c1cc(C(F)(F)F)c(=O)[nH]n1` [Compound 156]: the pIC50 was above 7.00 in the experiment with NCI-H1373 cells (Homo sapiens, NCI-H1373, 144 h) and above 7.00 on PARP7.
Regarding `O=C(c1cccc(Oc2n[nH]c(=O)c(C(F)(F)F)c2CO)c1)N1CCN(c2ncc(C(F)(F)F)cn2)CC1` [Compound 71], the pIC50 in the experiment with NCI-H1373 cells (Homo sapiens, NCI-H1373, 144 h) is below 6.00; at PARP7, 6.00 to 7.00.
The corresponding values for `Cc1c(Oc2ccnc(C(=O)N3CCN(c4ncc(C(F)(F)F)cn4)CC3)c2)n[nH]c(=O)c1C(F)(F)F` [Compound 21] are 6.00 to 7.00 and above 7.00.
In the case of `O=C(c1cccc(Oc2n[nH]c(=O)c(C(F)(F)F)c2N2CC3(CCC3)C2)c1)N1CCN(c2ncc(Cl)cn2)CC1` [Compound 199], the pIC50 is above 7.00 in the experiment with NCI-H1373 cells (Homo sapiens, NCI-H1373, 144 h) and above 7.00 on PARP7.
As to `O=C(CO[C@@H]1CCNc2c1n[nH]c(=O)c2C(F)(F)F)N1CCN(c2ncc(C(F)(F)F)cn2)CC1` (single isomer, unassigned) [Compound 2], the pIC50 was above 7.00 in the experiment on NCI-H1373 cells (Homo sapiens, NCI-H1373, 144 h) and above 7.00 at PARP7.
On to `Cc1c(N2C[C@@H](CC(=O)N3CCN(c4ncc(C(F)(F)F)cn4)CC3)O[C@H](C)C2)n[nH]c(=O)c1C(F)(F)F` (single isomer, unassigned) [Compound 43], for which the pIC50 with NCI-H1373 cells (Homo sapiens, NCI-H1373, 144 h) is 6.00 to 7.00; at PARP7, above 7.00.
The corresponding values for `O=C(c1cncc(Oc2n[nH]c(=O)c(C(F)(F)F)c2N2CC(C3CC3)C2)c1)N1CCN(c2ncc(Cl)cn2)CC1` [Compound 280] are 6.00 to 7.00 and above 7.00.
The like results for `Cc1c(N2CCOC(CC(=O)N3CCN(c4ncc(C(F)(F)F)cn4)CC3)C2)n[nH]c(=O)c1C(F)(F)F` (single isomer, unassigned) [Compound 39] were, in that order, 6.00 to 7.00 and above 7.00.
In the case of `CNC(=O)c1ccc2c(c1)N(c1cc(C(F)(F)F)c(=O)[nH]n1)CC(CC(=O)N1CCN(c3ncc(C(F)(F)F)cn3)CC1)O2` (single isomer, unassigned) [Compound 324], the pIC50 was below 6.00 with NCI-H1373 cells (Homo sapiens, NCI-H1373, 144 h) and above 7.00 at PARP7.
